Data: US12122764B2, “IKAROS zinc finger family degraders and uses thereof” (Gilead Sciences, Inc., priority 2021, dated 2024)

These compounds were tested against T1, IKZF2 (Homo sapiens, UniProt Q96SW2+Q9UKS7) (assay: HiBiT protein tagging assay, in vitro IKZF2 degradation (HEK293)). Details: IKZF2-HiBiT reporter Flp-In T-REx HEK293 cells, doxycycline-induced, compound overnight (18-24 hr), normalized to DMSO control; read-out: IKZF2 Dmax (maximum degradation at the highest concentration tested).
T1 construct: expressed in transfected cells
T1 sequence (Q9UKS7 1-500 isoform Q9UKS7-2): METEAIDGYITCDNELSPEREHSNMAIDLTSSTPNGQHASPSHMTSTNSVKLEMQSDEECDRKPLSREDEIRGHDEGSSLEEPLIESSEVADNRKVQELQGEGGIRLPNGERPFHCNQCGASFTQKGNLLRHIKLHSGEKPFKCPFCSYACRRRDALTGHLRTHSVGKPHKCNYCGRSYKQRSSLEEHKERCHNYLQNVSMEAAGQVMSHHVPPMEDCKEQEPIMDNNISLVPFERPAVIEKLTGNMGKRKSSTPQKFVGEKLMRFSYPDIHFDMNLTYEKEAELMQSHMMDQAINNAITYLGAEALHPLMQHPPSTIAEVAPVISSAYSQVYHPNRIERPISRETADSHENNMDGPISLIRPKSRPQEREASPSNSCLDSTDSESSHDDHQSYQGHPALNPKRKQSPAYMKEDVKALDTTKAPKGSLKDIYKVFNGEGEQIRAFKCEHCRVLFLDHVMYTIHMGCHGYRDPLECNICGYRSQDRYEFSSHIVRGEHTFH
T1 sequence (Q96SW2 whole entry): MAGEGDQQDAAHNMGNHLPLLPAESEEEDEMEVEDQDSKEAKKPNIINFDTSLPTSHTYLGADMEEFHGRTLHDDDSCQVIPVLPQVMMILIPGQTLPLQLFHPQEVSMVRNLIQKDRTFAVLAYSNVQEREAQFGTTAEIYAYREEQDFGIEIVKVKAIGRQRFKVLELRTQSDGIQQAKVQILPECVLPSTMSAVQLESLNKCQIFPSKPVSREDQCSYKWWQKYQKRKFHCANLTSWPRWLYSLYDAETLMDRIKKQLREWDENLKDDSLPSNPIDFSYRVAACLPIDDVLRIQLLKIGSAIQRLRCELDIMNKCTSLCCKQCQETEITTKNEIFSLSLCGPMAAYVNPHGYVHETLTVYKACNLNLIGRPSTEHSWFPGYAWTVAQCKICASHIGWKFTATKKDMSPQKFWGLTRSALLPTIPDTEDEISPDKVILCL
T1 sequence (Q16531 whole entry partner): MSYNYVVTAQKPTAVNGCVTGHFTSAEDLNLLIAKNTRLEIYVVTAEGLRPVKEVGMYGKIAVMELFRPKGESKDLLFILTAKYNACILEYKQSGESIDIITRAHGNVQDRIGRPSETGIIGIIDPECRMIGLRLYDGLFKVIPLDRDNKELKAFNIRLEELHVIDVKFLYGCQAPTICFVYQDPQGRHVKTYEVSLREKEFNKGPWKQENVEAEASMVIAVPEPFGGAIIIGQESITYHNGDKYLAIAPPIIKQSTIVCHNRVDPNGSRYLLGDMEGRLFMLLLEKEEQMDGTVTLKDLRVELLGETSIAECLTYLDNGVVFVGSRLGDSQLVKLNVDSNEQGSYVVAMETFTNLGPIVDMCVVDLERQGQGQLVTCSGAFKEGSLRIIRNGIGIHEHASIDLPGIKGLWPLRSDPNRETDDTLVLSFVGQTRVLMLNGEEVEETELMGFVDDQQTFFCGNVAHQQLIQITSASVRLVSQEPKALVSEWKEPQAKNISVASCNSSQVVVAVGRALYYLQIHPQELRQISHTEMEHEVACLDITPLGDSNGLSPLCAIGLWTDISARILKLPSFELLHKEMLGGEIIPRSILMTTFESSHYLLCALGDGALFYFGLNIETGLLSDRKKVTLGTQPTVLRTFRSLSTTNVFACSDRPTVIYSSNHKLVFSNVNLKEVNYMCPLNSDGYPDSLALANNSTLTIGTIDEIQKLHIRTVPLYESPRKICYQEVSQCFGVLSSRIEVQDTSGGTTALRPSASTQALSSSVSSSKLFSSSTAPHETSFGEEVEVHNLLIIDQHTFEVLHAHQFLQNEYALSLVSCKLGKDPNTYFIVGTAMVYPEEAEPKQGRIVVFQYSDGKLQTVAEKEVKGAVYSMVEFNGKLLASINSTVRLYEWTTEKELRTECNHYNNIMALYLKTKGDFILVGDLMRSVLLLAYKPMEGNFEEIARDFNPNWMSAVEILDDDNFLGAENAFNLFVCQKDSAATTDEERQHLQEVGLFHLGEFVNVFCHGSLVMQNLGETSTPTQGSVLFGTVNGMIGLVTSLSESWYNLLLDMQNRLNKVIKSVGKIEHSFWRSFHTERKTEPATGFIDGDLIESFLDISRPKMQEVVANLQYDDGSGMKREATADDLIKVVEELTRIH
Format: cell-based
Method: In vitro degradation of IKZF1 and IKZF2 was measured using HiBiT protein tagging and detection technology (Promega).
HiBiT technology (Promega) was used to develop the quantitative assays to measure the cellular IKZFs level by tagging an 11 amino acid HiBit peptides VSGWRLFKKIS (SEQ ID NO:1) to the protein of interest. Reporter plasmids were generated by fusing a linker sequence (GSSGGSSG; SEQ ID NO:2) followed by the HiBiT tag at the C terminus of IKZF1 and IKZF2. The fusion fragments were subsequently cloned into pcDNA5 pcDNA™5/FRT/TO plasmids (Thermo Fisher, cat #V652020) downstream of the Tetracycline operator. The resulting plasmids were co-transfected with pOG44 Flp-Recombinase Expression Vector (Thermo Fisher, cat #V600520) into Flp-In™ T-REx HEK293 line (Thermo Fisher, cat #R78077) and a stable cell pool was selected by adding 100 μg/ml of Hygromycin (Thermo Fisher, cat #10687010). The reporter cell enabled Tet-On inducible reporter expression from a single copy of the integrated gene.
On Day 1, Cells were grown to ˜80% confluency in TC medium (DMEM Glutamax (Gibco10569), 10% Tet free FBS (Takara 631106), and PenStrep Glutamin (Gibco 10378)) in tissue culture flasks. Doxycycline was then added to a final concentration of 1 μg/ml to induce reporter expression at 37° C. overnight.
On Day 2, 125 nL of serially-diluted solution of testing compounds were dispensed into 384-well white solid assay plates via ECHO acoustic liquid handler. Cells were lifted by 0.25% Trypsin (Gibco 25200) then pelleted by centrifugation (Beckman Avanti J-E) at 500×g for 5 min. Cell pellets were resuspended in TC medium at the concentration of 3e5/mL and 25 μL of cell suspension were added into each well of compound-spotted plates. The plates were returned to a 37° C. incubator overnight (18-24 hr).
On Day 3, assay plates were removed from the TC incubator and 25 μL of Nano-Glo lytic detection system (Promega, cat #N3030) was added to each well. Plates were incubated at r.t. for 3 min with shaking, and luminescence was read using an Envision reader (Perkin Elmer).
All raw data was normalized to DMSO control (final concentration: 0.5%) wells as POC and plotted out for EC50 and Dmax (Maximum degradation at the highest concentration tested in the assay).
Work on `O=C1CCC(N2Cc3cc(OC4CN(Cc5ccccc5)CCC4NCc4ccccc4)ccc3C2=O)C(=O)N1` (racemic) [Example 2] yielded a Dmax of 94%. Work on `O=C1CCC(N2Cc3cc(O[C@H]4CN(Cc5ccccc5Cl)CC[C@@H]4NCc4ccccc4)ccc3C2=O)C(=O)N1` (mixture of isomers) [Example 3] yielded a Dmax of 85%. Compound `CCN1CCC(NCc2ccccc2)C(Oc2ccc3c(c2)CN(C2CCC(=O)NC2=O)C3=O)C1` (racemic) [Example 4] has a Dmax of 51%. Compound `CC(C)N1CCC(NCc2ccccc2)C(Oc2ccc3c(c2)CN(C2CCC(=O)NC2=O)C3=O)C1` (racemic) [Example 5] has a Dmax of 47%. Work on `CC(C)CN1CCC(NCc2ccccc2)C(Oc2ccc3c(c2)CN(C2CCC(=O)NC2=O)C3=O)C1` (racemic) [Example 6] yielded a Dmax of 35%. `O=C1CCC(N2Cc3cc(OC4CN(Cc5cccnc5)CCC4NCc4ccccc4)ccc3C2=O)C(=O)N1` (racemic) [Example 7] showed a Dmax of 92%. Compound `O=C1CCC(N2Cc3cc(OC4CN(Cc5ccccn5)CCC4NCc4ccccc4)ccc3C2=O)C(=O)N1` (racemic) [Example 8] has a Dmax of 64%. Compound `O=C1CCC(N2Cc3cc(OC4CN(Cc5ccncc5)CCC4NCc4ccccc4)ccc3C2=O)C(=O)N1` (racemic) [Example 9] has a Dmax of 87%. Work on `O=C1CCC(N2Cc3cc(O[C@H]4CN(Cc5ccccc5)CC[C@@H]4NCc4ccccc4Cl)ccc3C2=O)C(=O)N1` (mixture of isomers) [Example 10] yielded a Dmax of 69%. Compound `CCN(CC)C1CCN(Cc2ccccc2)CC1Oc1ccc2c(c1)CN(C1CCC(=O)NC1=O)C2=O` (racemic) [Example 11] has a Dmax of 90%. With `CCNC1CCN(Cc2ccccc2)CC1Oc1ccc2c(c1)CN(C1CCC(=O)NC1=O)C2=O` (racemic) [Example 12] the Dmax was 97%. `O=C1CCC(N2Cc3cc(OC4CN(Cc5ccccc5)CCC4NCc4ccccn4)ccc3C2=O)C(=O)N1` (racemic) [Example 13] gave a Dmax of 84%. Work on `O=C1CCC(N2Cc3cc(OC4CN(Cc5ccccc5)CCC4NCc4cccnc4)ccc3C2=O)C(=O)N1` (racemic) [Example 14] yielded a Dmax of 91%. Work on `O=C1CCC(N2Cc3cc(OC4CN(Cc5ccccc5)CCC4NCc4ccncc4)ccc3C2=O)C(=O)N1` (racemic) [Example 15] yielded a Dmax of 73%. For `O=C1CCC(N2Cc3cc(O[C@@H]4CN(C5CC5)CC[C@H]4NCc4ccccc4)ccc3C2=O)C(=O)N1` (mixture of isomers) [Example 16], the Dmax was 57%. `O=C1CCC(N2Cc3cc(O[C@H]4CN(Cc5ccccc5F)CC[C@@H]4NCc4ccccc4)ccc3C2=O)C(=O)N1` (mixture of isomers) [Example 17] showed a Dmax of 91%. `O=C1CCC(N2Cc3cc(O[C@H]4CN(Cc5ccc(F)cc5)CC[C@@H]4NCc4ccccc4)ccc3C2=O)C(=O)N1` (mixture of isomers) [Example 18] showed a Dmax of 97%. `O=C1CCC(N2Cc3cc(O[C@H]4CN(Cc5cccc(F)c5)CC[C@@H]4NCc4ccccc4)ccc3C2=O)C(=O)N1` (mixture of isomers) [Example 19] was tested, and the Dmax was 89%. `O=C1CCC(N2Cc3cc(O[C@H]4CN(Cc5cccc(F)c5F)CC[C@@H]4NCc4ccccc4)ccc3C2=O)C(=O)N1` (mixture of isomers) [Example 20] showed a Dmax of 86%. For `O=C1CCC(N2Cc3cc(O[C@H]4CN(Cc5ccc(F)cc5F)CC[C@@H]4NCc4ccccc4)ccc3C2=O)C(=O)N1` (mixture of isomers) [Example 21], the Dmax was 92%. Work on `O=C1CCC(N2Cc3cc(O[C@H]4CN(Cc5ccc(F)c(F)c5)CC[C@@H]4NCc4ccccc4)ccc3C2=O)C(=O)N1` (mixture of isomers) [Example 22] yielded a Dmax of 90%. Compound `O=C1CCC(N2Cc3cc(O[C@H]4CN(Cc5cc(F)ccc5F)CC[C@@H]4NCc4ccccc4)ccc3C2=O)C(=O)N1` (mixture of isomers) [Example 23] has a Dmax of 88%. `O=C1CCC(N2Cc3cc(O[C@H]4CN(Cc5c(F)cccc5F)CC[C@@H]4NCc4ccccc4)ccc3C2=O)C(=O)N1` (mixture of isomers) [Example 24] was tested, and the Dmax was 93%. Compound `O=C1CCC(N2Cc3cc(O[C@H]4CN(Cc5cc(F)cc(F)c5)CC[C@@H]4NCc4ccccc4)ccc3C2=O)C(=O)N1` (mixture of isomers) [Example 25] has a Dmax of 75%. In the case of `O=C1CCC(N2Cc3cc(O[C@H]4CN(Cc5ccccc5)CC[C@@H]4NCc4ccc(F)cc4)ccc3C2=O)C(=O)N1` (mixture of isomers) [Example 26], the Dmax is reported as 89%. In the case of `CCNC1CCN(Cc2ccc(F)cc2)CC1Oc1ccc2c(c1)CN(C1CCC(=O)NC1=O)C2=O` (racemic) [Example 27], the Dmax is reported as 92%. For `O=C1CCC(N2Cc3cc(O[C@H]4CN(Cc5ccccc5)CC[C@@H]4NCc4ccccc4F)ccc3C2=O)C(=O)N1` (mixture of isomers) [Example 28], the Dmax was 90%. For `O=C1CCC(N2Cc3cc(O[C@H]4CN(Cc5ccccc5)CC[C@@H]4NCc4cccc(F)c4)ccc3C2=O)C(=O)N1` (mixture of isomers) [Example 29], the Dmax was 88%. Work on `O=C1CCC(N2Cc3cc(O[C@H]4CN(Cc5ccc(Cl)cc5)CC[C@@H]4NCc4ccccc4)ccc3C2=O)C(=O)N1` (mixture of isomers) [Example 30] yielded a Dmax of 95%. Work on `O=C1CCC(N2Cc3cc(O[C@H]4CN(Cc5ccc(-c6ccccc6)cc5)CC[C@@H]4NCc4ccccc4)ccc3C2=O)C(=O)N1` (mixture of isomers) [Example 31] yielded a Dmax of 101%. With `N#Cc1ccc(CN2CC[C@H](NCc3ccccc3)[C@@H](Oc3ccc4c(c3)CN(C3CCC(=O)NC3=O)C4=O)C2)cc1` (mixture of isomers) [Example 32] the Dmax was 94%. `COc1ccc(CN2CC[C@H](NCc3ccccc3)[C@@H](Oc3ccc4c(c3)CN(C3CCC(=O)NC3=O)C4=O)C2)cc1` (mixture of isomers) [Example 33] showed a Dmax of 94%. `O=C1CCC(N2Cc3cc(O[C@H]4CN(Cc5ccc(C(F)(F)F)cc5)CC[C@@H]4NCc4ccccc4)ccc3C2=O)C(=O)N1` (mixture of isomers) [Example 34] was tested, and the Dmax was 80%. Work on `O=C1CCC(N2Cc3cc(OC4CN(Cc5ccccc5)CCC4NCCc4ccccc4)ccc3C2=O)C(=O)N1` (racemic) [Example 35] yielded a Dmax of 98%. In the case of `CC(C)NC1CCN(Cc2ccccc2)CC1Oc1ccc2c(c1)CN(C1CCC(=O)NC1=O)C2=O` (racemic) [Example 36], the Dmax is reported as 98%. `O=C1CCC(N2Cc3cc(OC4CN(Cc5ccccc5)CCC4NCC4CC4)ccc3C2=O)C(=O)N1` (racemic) [Example 37] gave a Dmax of 98%. Work on `CCN[C@H]1CCN(Cc2ccc(F)cc2F)C[C@@H]1Oc1ccc2c(c1)CN(C1CCC(=O)NC1=O)C2=O` (mixture of isomers) [Example 38] yielded a Dmax of 97%. `N#CCN1CCC(NCc2ccccc2)C(Oc2ccc3c(c2)CN(C2CCC(=O)NC2=O)C3=O)C1` (racemic) [Example 41] gave a Dmax of 28%. For `C[C@@H](c1ccccc1)N1CC[C@H](NCc2ccccc2)[C@@H](Oc2ccc3c(c2)CN(C2CCC(=O)NC2=O)C3=O)C1` (mixture of isomers) [Example 50], the Dmax was 71%. `C[C@H](c1ccccc1)N1CC[C@H](NCc2ccccc2)[C@@H](Oc2ccc3c(c2)CN(C2CCC(=O)NC2=O)C3=O)C1` (mixture of isomers) [Example 51] showed a Dmax of 57%. `O=C1CCC(N2Cc3cc(O[C@H]4CN(CCC(F)(F)F)CC[C@@H]4NCc4ccccc4)ccc3C2=O)C(=O)N1` (mixture of isomers) [Example 52] was tested, and the Dmax was 27%. For `O=C1CCC(N2Cc3cc(O[C@H]4CN(CCF)CC[C@@H]4NCc4ccccc4)ccc3C2=O)C(=O)N1` (mixture of isomers) [Example 53], the Dmax was 77%. Compound `CCNC1CCN(Cc2ccc3ccccc3c2)CC1Oc1ccc2c(c1)CN(C1CCC(=O)NC1=O)C2=O` (racemic) [Example 56] has a Dmax of 96%. Work on `CCN(CC)C1CCN(Cc2ccc3ccccc3c2)CC1Oc1ccc2c(c1)CN(C1CCC(=O)NC1=O)C2=O` (racemic) [Example 57] yielded a Dmax of 98%. `CCOC1CN(C2CCN(Cc3ccccc3)CC2Oc2ccc3c(c2)CN(C2CCC(=O)NC2=O)C3=O)C1` (racemic) [Example 58] showed a Dmax of 96%.
